Experimental data reported in US5281619A, “Therapy for diabetic complications” (Eli Lilly and Company, priority 1993, dated 1994).

Assays:
[1] = test system: bovine retinal capillary endothelial cells; assay: Inhibition of phorbol ester-induced endothelial cell activation, plasminogen activator (PA) activity in cell lysates; assay type: cell-based; details: Bos taurus, 4-β PDBu (50 nM) activated cells, 48 hours
Source text: Retinal capillary endothelial cell cultures were initiated from bovine eyes using a modification of the procedure of Buzney et al., Investigative Ophthalmology and Visual Sciences, 24: 470-480 (1983). Bovine eyes were transported on ice from a local abattoir. Extraocular muscle was trimmed from the eye, and the eye bisected posterior to the ora serrata. The vitreous and anterior portion of the eye were discarded, and the neuro-retina was gently dissected from the posterior eyecup. The retinas from 20 cattle were pooled and homogenized (5 strokes of a Teflon/glass homogenizer) in Hank's saline. The homogenate was passed through a 350μ filter to remove large debris and a 210μ filter to remove large vessels. The microvessels were trapped on a 85μ filter. The microvessels were resuspended in Hank's saline and digested with 7.5 mg/ml bacterial collagenase (Boeringher Mannheim, Indianapolis) Hank's saline for 1 hour at 37° C. […]
(§1) The activation of bovine retinal capillary endothelial cells was monitored through alterations in cellular plasminogen activator (PA) activity in the cell lysates. Plasminogen activator activity was determined in a 50 μl aliquot of cell lysate using the synthetic substrate H-D-valyl-L-leucyl-lysine-p-nitroaniline dihydrochloride (Kabi).

[2] = test system: Glucose-Induced Vascular Dysfunction in Normal Rats; assay: Glucose-induced vascular dysfunction in rat granulation tissue chamber model (permeability and blood flow); assay type: in vivo; details: twice daily for 7 days, 30-35 mM glucose
Protocol: Representative compounds were evaluated in situ for their ability to block the increase in blood flow and permeability induced by high glucose in a rat tissue granulation tissue chamber model. In this model circles of skin were removed from the backs of normal rats and stainless steel screw-cap chambers were mounted. New granulation tissue formed within the chambers. Addition of 30-35 mM glucose (0.5 ml) twice daily to the chambers for 7 days induced a vascular dysfunction similar to that of diabetes--that is there was an increase in blood vessel permeability and an increase in blood flow. Blood flow was measured through the use of radiolabeled microspheres, and permeability was quantified using a dual label technique with iodinated albumin (^125 I/^131 I). Details of the model can be found in Tilton, et al., Diabetes38: 1258-1270 (1989). and Williamson, et al., J. Clin. Invest. 85: 1167-1172 (1990).
Representative compounds were dissolved in DMSO and diluted in a balanced salt solution to achieve a final concentration of 20 or 50 μM. The granulation chamber tissue was treated twice daily for 7 days to determine their effects on glucose-induced vascular dysfunction. Addition of 30-35 mM glucose to the granulation chamber induced a vascular dysfunction characterized by increased vessel permeability and increased blood flow.

[3] = test system: vasculature in streptozotocin-diabetic rats; assay: Microvascular dysfunction associated with streptozotocin-induced diabetes in rats (permeability and blood flow); assay type: in vivo, rat; details: 0.1% in diet, 4 to 7-week period
Protocol: Representative compounds were further evaluated for their ability to block the microvascular dysfunction associated with streptozotocin-induced diabetes. Rats were made diabetic with an injection of streptozotocin, and the rats were feed ad libitum with a diet containing 0.1% of a representative compound. Blood flow was measured through the use of radiolabeled microspheres while permeability was quantified using a dual label technique with iodinated albumin (^125 I/^131 I). Details of the model can be found in Tilton et al., Diabetes38: 1258-1270 (1989), and Williamson et al., J. Clin. Invest. 85: 1167-1172 (1990).
Blood flow also was elevated on induction of diabetes in these tissues. In contrast, vascular function was not affected in the brain or muscle.

[4] = test system: bovine retinal capillary endothelial cells; assay: Activation of bovine retinal capillary endothelial cells by phorbol esters (PA activity, cell number); assay type: cell-based; details: for increase in endothelial cell activation (in words): phorbol esters known to activate PKC vs. 4-α analogues
Source text: Retinal capillary endothelial cell cultures were initiated from bovine eyes using a modification of the procedure of Buzney et al., Investigative Ophthalmology and Visual Sciences, 24: 470-480 (1983). Bovine eyes were transported on ice from a local abattoir. Extraocular muscle was trimmed from the eye, and the eye bisected posterior to the ora serrata. The vitreous and anterior portion of the eye were discarded, and the neuro-retina was gently dissected from the posterior eyecup. The retinas from 20 cattle were pooled and homogenized (5 strokes of a Teflon/glass homogenizer) in Hank's saline. The homogenate was passed through a 350μ filter to remove large debris and a 210μ filter to remove large vessels. The microvessels were trapped on a 85μ filter. The microvessels were resuspended in Hank's saline and digested with 7.5 mg/ml bacterial collagenase (Boeringher Mannheim, Indianapolis) Hank's saline for 1 hour at 37° C. The cells were pelleted by centrifugation (100 xg, 10 min), resuspended in 5 ml Endothelial Growth Media (EGM, Clonetics) and seeded in a gelatin-coated T-25 flask. After 24 hours the cells were trypsinized and replated in a gelatin coated T225. At 7 days and again at 14 days the cultures were labeled with acetylated lipoproteins labeled with the fluorescent probe (1,1'-dioctadecyl-3,3,3,3,-tetramethyl-indocarbocyanine perchlorate). The endothelial cells were separated from contaminating cell types using a fluorescent cell sorter as described in Voyta et al., J. Cell Biology, 99: 2034-2040 (1984).
Retinal capillary endothelial cells were seeded into 96-well plates and grown to confluence (10^5 cells/well) in EGM containing 10% fetal bovine serum (FBS). The media was changed to Dubecco's Modified Eagle's Medium with 10% fetal bovine serum 24 hours prior to the assay. The cells were treated with 50 nM 4-β phorbol 12,13-dibutyrate (4-β PDBu) to activate PKC and produce the activated endothelial phenotype characteristic of the diabetic state. The activated cells were treated with a series of dilutions of the test compounds. The phorbol esters and the test compounds were dissolved in DMSO before adding to the culture media. The cultures were incubated at 37° C. for 48 hours. Following treatment, the cells were lysed with 25mM NH4 OH in 0.5% triton X-100.
as §1
Dose-response curves generated for 4-β PDBu and 4-β PMA indicated […] of 50 nM and 5 nM respectively. Elevated PA activity was observed only after prolonged (at least 8 hours) stimulation with phorbol esters. The PA activity continued to increase in a time and dose dependent manner for up to 72 hours, but constant stimulation with phorbol ester was required to maintain endothelial cell activation.

SMILES: N#CC1=C(N)Oc2c(ccc3ccccc23)C1c1cccc([N+](=O)[O-])c1 (stereo not shown) [Example 6, 2 Amino-4-(3-nitrophenyl)-4H-naphtho[1,2-b]pyran-3-carbonitrile]
- IC50 [1]: 0.025 µM
- BSA Clearance ([2]; 20 μM): 179 µg/g/min
- Blood Flow ([2]; 20 μM): 0.184 mL/g/min
- BSA Clearance ([2]; 50 μM): 158 µg/g/min
- Blood Flow ([2]; 50 μM): 0.168 mL/g/min
- development of increased permeability and blood flow (in words) [3]: prevented the development of increased permeability and blood flow
- Permeability, Aorta ([3]; aorta, diabetic rats): 99.00 µg/g/min
- Blood Flow, Brain ([3]; brain, diabetic rats): 0.88 mL/min/g
- Permeability, Brain ([3]; brain, diabetic rats): 19.00 µg/g/min
- Permeability, Muscle ([3]; muscle, diabetic rats): 63.00 µg/g/min
- Blood Flow, Nerve ([3]; nerve, diabetic rats): 0.05 mL/min/g
- Permeability, Nerve ([3]; nerve, diabetic rats): 63.00 µg/g/min
- Blood Flow, Retina ([3]; retina, diabetic rats): 0.40 mL/min/g
- Permeability, Retina ([3]; retina, diabetic rats): 59.00 µg/g/min

SMILES: CCCCCCCCCCCCCC(=O)OC1C(C)C2(O)C(C=C(CO)CC3(O)C(=O)C(C)=CC32)C2C(C)(C)C12OC(C)=O (stereo not drawn) [4-β PMA]
- IC50 ([4]; Bos taurus, Endothelial cell, dose-response curves for phorbol esters): 0.005 µM
- increase in endothelial cell activation (in words) [4]: increase in activation occurred

SMILES: CCCC(=O)OC1C(C)C2(O)C(C=C(CO)CC3(O)C(=O)C(C)=CC32)C2C(C)(C)C12OC(=O)CCC (stereo not drawn) [4-β PDBu, 4-β phorbol 12,13-dibutyrate]
- increase in PA activity associated with the cell layer ([4]; confluent cells, 48 hours): 12 fold
- increase in PA released into the media ([4]; confluent cells, 48 hours): 12 fold
- increase in cell number ([4]; confluent cells, 48 hours): two fold increase in cell number
- increase in endothelial cell activation (in words) [4]: increase in activation occurred

SMILES: CCCCCCCCCCCCCC(=O)OC1C(C)C2(O)C(C=C(CO)CC3(O)C(=O)C(C)=CC32)C2C(C)(C)C12OC(C)=O (stereo not drawn) [4-α PMA]
- increase in endothelial cell activation (in words) [4]: not

SMILES: CCCC(=O)OC1C(C)C2(O)C(C=C(CO)CC3(O)C(=O)C(C)=CC32)C2C(C)(C)C12OC(=O)CCC (stereo not drawn) [4-α PDBu]
- increase in endothelial cell activation (in words) [4]: not

SMILES: N#CC1=C(N)Oc2c(ccc3ccccc23)C1c1ccccc1[N+](=O)[O-] (stereo not shown) [Example 5, 2-Amino-4-(2-nitrophenyl)-4H-naphtho[1,2-b]pyran-3-carbonitrile]
- IC50 [1]: 0.5 µM
- BSA Clearance ([2]; 20 μM): 163 µg/g/min
- Blood Flow ([2]; 20 μM): 0.231 mL/g/min
